Measurements taken from paper PMC12197275, “Preclinical Pharmacokinetic Evaluation of Mithramycin and Mithramycin SA Tryptophan-Conjugated Analog” (Pharmaceutics, 2025).
Read-outs that look alike come from different tables or passages of the source.

Experiments:
[1] = cited from earlier work
[2] = Plasma PK in male Sprague Dawley rats, IV bolus 0.5 mg/kg (Study 2); details: male rat, 0.5 mg/kg IV bolus
Description: Rat PK studies were conducted using male Sprague Dawley rats (Study 2; Table 1). […] Blood samples were collected at three different time points by saphenous bleeding. The collection time points were at 5 min and 20 min and at 1, 3, 6, and 9 h. The blood samples were processed and stored as described above.
(§1) All samples were processed and analyzed by LC-MS/MS using a bioanalytical method validated according to the FDA’s Bioanalytical Guidance, essentially as described by Eckenrode et al. with some modifications [15]. […] Plasma samples above the calibration curve range were diluted, along with quality control (QC) samples, and values were accepted when the interpolated concentrations were within 15% of the nominal values. The expected % recovery for both compounds was >90% [15, 16]. Analyte separation and detection were performed on a Sciex Exion HPLC system equipped with a C18 analytical column (Phenomenex Synergi 4 µm Fusion-RP 80A; 50 mm × 2 mm with a guard column) and coupled to a hybrid triple-quadrupole/linear ion trap mass spectrometer (Sciex QTrap 6500+ or 7500+, Framingham, MA, USA). A 0.6 mL/min gradient of 0.005% formic acid in water and 0.005% formic acid in acetonitrile was used to elute the analytes within a 5 min time window. […] The internal standard was the MTM oxime–tryptophan [5]. The instruments were controlled and the data were integrated and processed using Sciex OS software version 3.3.1.43.
(§2) Only concentrations above the limit of quantification were used for NCA. The linear-up log-down trapezoidal integration method was used to estimate the area under the curve from time zero to the last measurable concentration–time point (AUClast). The terminal elimination rate constant (ke) was estimated by log-linear regression using the last three data points of the concentration–time profiles.

[3] = male monkey n=1, high microdose cassette: MTM 13.18 µg/kg, MTMSA-Trp 4.19 µg/kg, IV infusion
Description: Two separate cassette dosing PK studies were conducted using male cynomolgus monkeys. […] The blood samples were processed and stored as described above.
as §1

[4] = tested on: plasma from athymic nude (nu/nu) mice; assay: Plasma protein binding by rapid equilibrium dialysis, mouse plasma; details: for Fraction Unbound (%): athymic nude mouse plasma
Description: (§3) Protein binding was assessed in plasma derived from athymic nude (nu/nu) mice, Sprague Dawley rats, Cynomolgus monkeys, and humans. Plasma from athymic nude mice and Sprague Dawley rats was collected from animals housed locally. […] Plasma was collected by centrifuging the whole blood immediately upon collection, stored at 4 °C, and used within one week of storage for protein binding studies. The plasma was spiked with the compound to prepare 1, 3, and 10 µM final concentrations (0.1% DMSO (v/v)). Spiked plasma (100 µL) and PBS (350 µL) were placed in their respective chambers in the Pierce™ RED Device (12K MWCO; Linden Bioscience, Research Triangle Park, NC, USA) and incubated in a Talboys microplate shaker at 37 °C and 250 rpm for 4 h to achieve equilibrium. Post-dialysis samples were collected from the plasma and buffer chambers, matrix-matched with PBS and plasma, respectively, and analyzed by LC-MS/MS as detailed below. The experiments were performed in triplicate, and the unbound percentage was calculated based on the following equation [13]: fu=PBS chamber area ratio/Plasma chamber area ratio;Area ratio=analyte area/ISTD area
(§4) All samples were processed and analyzed by LC-MS/MS using a bioanalytical method validated according to the FDA’s Bioanalytical Guidance, essentially as described by Eckenrode et al. with some modifications [15]. […] Plasma samples above the calibration curve range were diluted, along with quality control (QC) samples, and values were accepted when the interpolated concentrations were within 15% of the nominal values. […] Analyte separation and detection were performed on a Sciex Exion HPLC system equipped with a C18 analytical column (Phenomenex Synergi 4 µm Fusion-RP 80A; 50 mm × 2 mm with a guard column) and coupled to a hybrid triple-quadrupole/linear ion trap mass spectrometer (Sciex QTrap 6500+ or 7500+, Framingham, MA, USA). A 0.6 mL/min gradient of 0.005% formic acid in water and 0.005% formic acid in acetonitrile was used to elute the analytes within a 5 min time window. […] The internal standard was the MTM oxime–tryptophan [5]. The instruments were controlled and the data were integrated and processed using Sciex OS software version 3.3.1.43.

human plasma = assay: Plasma protein binding by rapid equilibrium dialysis, human plasma
Description: as §3, §4

[5] = Cassette microdose plasma PK in male Sprague Dawley rats, 28 µg/kg (Study 6)
Description: as §1, §2

[6] = Cassette microdose plasma PK in male athymic nude mice, 69 µg/kg (Study 5)
Description: as §1, §2

[7] = tested on: plasma from Cynomolgus monkeys; assay: Plasma protein binding by rapid equilibrium dialysis, monkey plasma; details: Cynomolgus macaque plasma
Description: as §3
(§5) All samples were processed and analyzed by LC-MS/MS using a bioanalytical method validated according to the FDA’s Bioanalytical Guidance, essentially as described by Eckenrode et al. with some modifications [15]. […] Plasma samples above the calibration curve range were diluted, along with quality control (QC) samples, and values were accepted when the interpolated concentrations were within 15% of the nominal values. […] Analyte separation and detection were performed on a Sciex Exion HPLC system equipped with a C18 analytical column (Phenomenex Synergi 4 µm Fusion-RP 80A; 50 mm × 2 mm with a guard column) and coupled to a hybrid triple-quadrupole/linear ion trap mass spectrometer (Sciex QTrap 6500+ or 7500+, Framingham, MA, USA). A 0.6 mL/min gradient of 0.005% formic acid in water and 0.005% formic acid in acetonitrile was used to elute the analytes within a 5 min time window. […] The internal standard was the MTM oxime–tryptophan [5]. […]

[8] = design: method as in doi:10.1158/1535-7163.TARG-23-B150; details: across different multi-day dosing schedules; cited from earlier work
[9] = Plasma PK in male athymic nude mice, IV bolus 2 mg/kg (Study 1); details: male mouse, 2 mg/kg IV bolus
Description: Four separate PK studies were conducted using nu/nu mice. For studies using destructive sampling, the animals were anesthetized under isoflurane gas and samples were collected through intracardiac puncture in heparinized syringes. […] Blood samples were collected (n = 3 mice/time point) by cardiac puncture at 5 and 30 min and at 1.5, 3, and 6 h. […] Blood samples (n = 3 mice/time point) were collected by cardiac puncture at 5 min, 30 min, 2 h, and 5 h. […] Three groups (n = 9/group) of nu/nu mice were dosed at 0.3 mg/kg, 1 mg/kg, and 3 mg/kg. The mice at each dose level were randomized into three groups of three mice. The sampling time points for the three doses were as follows: 10 min, 20 min, 30 min, 45 min, 1 h, 1.5 h, 2 h, 2.5 h, and 3 h for the 0.3 mg/kg group; 5 min, 15 min, 30 min, 1 h, 2 h, 3 h, 4 h, 6 h, and 8 h for the 1 mg/kg group; and 5 min, 15 min, 30 min, 1 h, 2 h, 4 h, 6 h, 9 h, and 12 h for the 3 mg/kg group. […] Blood samples (n = 2 mice/time point) were collected by cardiac puncture at 10 min, 30 min, 1 h, 3 h, and 6 h. After collection, blood samples were immediately centrifuged at 4000 g for 2 min, and plasma samples were immediately collected and placed on dry ice, followed by storage at −80 °C until analysis.
Plasma samples above the calibration curve range were diluted, along with quality control (QC) samples, and values were accepted when the interpolated concentrations were within 15% of the nominal values.

[10] = Stability of dosing solutions; details: […]; 5% Solutol HS-15/95% PBS pH 8)
[11] = tested on: plasma from Sprague Dawley rats; assay: Plasma protein binding by rapid equilibrium dialysis, rat plasma
Description: as §3, §5

[12] = female athymic nude mice, 0.3 mg/kg IV bolus
[13] = female athymic nude mice, 1 mg/kg IV bolus
[14] = female athymic nude mice, 3 mg/kg IV bolus
[15] = female athymic nude mice, 5 mg/kg IV bolus
[16] = female athymic nude mice, 10 mg/kg IV bolus
[17] = male rat, 28 µg/kg each, cassette IV bolus
[18] = male mouse, 69 µg/kg each, cassette IV bolus

## CO[C@@H]([C@@H]1Cc2cc3cc(O[C@H]4CC(O[C@H]5CC(O)[C@H](O)C(C)O5)[C@H](O)C(C)O4)c(C)c(O)c3c(O)c2C(=O)[C@H]1O[C@H]1CC(O[C@H]2CC(O[C@H]3CC(O)[C@H](O)C(C)O3)[C@@H](O)C(C)O2)[C@H](O)C(C)O1)[C@@H](O)C(C)=O (some centres unmarked) [EC-8042]
[1]; same as MTM
  systemic clearance: high systemic clearance

## mithramycin SA-Trp [MTMSA-Trp]
[2]
  AUC0–inf: 3486 ng·h/mL
  CL: 2.38 mL/min/kg
  Extrapolated AUC0–inf: 1.43%
  Terminal t1/2: 1.56 h
  Vd: 0.324 L/kg
Average over 1, 3, 5, and 10 mg/kg, female athymic nude mice
  estimated systemic clearance, average: approximately 41 mL/h/kg
[12]
  AUC0–inf: 4373 ng·h/mL
  CL: 1.15 mL/min/kg
  Extrapolated AUC0–inf: 0.4%
  Vd: 0.045 L/kg
  t1/2: 0.5 h
[13]
  AUC0–inf: 24,419 ng/mL·h
  CL: 0.683 mL/min/kg
  Extrapolated AUC0–inf: 0.2%
  Vd: 0.075 L/kg
  t1/2: 1.3 h
[14]
  AUC0–inf: 91,778 ng/mL·h
  CL: 0.55 mL/min/kg
  Extrapolated AUC0–inf: 0.2%
  Vd: 0.123 L/kg
  t1/2: 2.6 h
[15]
  CL: 0.6 mL/min/kg
  Extrapolated AUC0–inf: 6.5%
  Vd: 0.08 L/kg
  t1/2: 1.5 h
[16]
  AUC0–inf: 216,281 ng/mL·h
  CL: 0.767 mL/min/kg
  Extrapolated AUC0–inf: 5.6%
  Vd: 0.081 L/kg
  t1/2: 1.2 h
Female athymic nude mice, IV bolus
  linear kinetics range: 1 to 10 mg/kg
mice, 1, 3, and 10 mg/kg doses
  dose proportionality: linear pharmacokinetics
[3]
  AUC0–inf: 181 ng·h/mL
  CL: 0.383 mL/min/kg
  Extrapolated AUC0–inf: 4.99%
  Terminal t1/2: 0.78 h
  Vd: 0.026 L/kg
[4]; 1 µM
  Fraction Unbound (%): <1%
[4]; 3 µM
  Fraction Unbound (%): <1%
[4]; 10 µM
  Fraction Unbound (%): <1%
[4]; nu/nu mouse plasma, across tested concentrations (1, 3, 10 µM)
  unbound fraction: < 1%
Human plasma; 1 µM
  Fraction Unbound (%): <1%
Human plasma; 3 µM
  Fraction Unbound (%): <1%
Human plasma; 10 µM
  Fraction Unbound (%): <1%
Human plasma; across tested concentrations
  unbound fraction: < 1%
[5]; [17]
  AUC0–inf: 223 ng·h/mL
  CL: 2.1 mL/min/kg
  Extrapolated AUC0–inf: 8.4%
  Terminal t1/2: 2.4 h
  Vd: 0.428 L/kg
[5]; rats, 28 µg/kg vs 0.5 mg/kg
  change of systemic clearance between microgram- and milligram-level doses: remained similar
[6]; [18]
  AUC0–inf: 569 ng·h/mL
  CL: 2.02 mL/min/kg
  Extrapolated AUC0–inf: 3.2%
  Terminal t1/2: 1.8 h
  Vd: 0.318 L/kg
[6]; mice, 69 µg/kg vs 2 mg/kg
  change of systemic clearance between microgram- and milligram-level doses: approximately 0.4 fold
[7]; 1 µM
  Fraction Unbound (%): 1.03 ± 0.27%
[7]; 3 µM
  Fraction Unbound (%): 1.02 ± 0.09%
[7]; 10 µM
  Fraction Unbound (%): 1.14 ± 0.15%
[8]
  maximum tolerated doses: 1 to 3 mg/kg
[9]
  AUC0–inf: 38,564 ng/mL·h
  CL: 0.867 mL/min/kg
  Extrapolated AUC0–inf: 8.07%
  Terminal t1/2: 1.85 h
  Vd: 0.138 L/kg
[10]
  stability of dosing solution following formulation: at least 11 days
[11]; 1 µM
  Fraction Unbound (%): 2.41 ± 1.29%
[11]; 3 µM
  Fraction Unbound (%): 3.85 ± 0.08%
[11]; 10 µM
  Fraction Unbound (%): 3.88 ± 0.54%

## CO[C@H](C(O)C(C)=O)[C@@H]1Cc2cc3cc(OC4C[C@@H](OC5C[C@@H](O)[C@H](O)C(C)O5)[C@H](O)C(C)O4)c(C)c(O)c3c(O)c2C(=O)[C@H]1OC1C[C@@H](OC2C[C@@H](OC3C[C@](C)(O)[C@H](O)C(C)O3)[C@@H](O)C(C)O2)[C@H](O)C(C)O1 (some centres unmarked) [MTM-SK]
[1]; in vivo
  systemic clearance: high systemic clearance

## COC(=O)[C@H](Cc1c[nH]c2ccccc12)NC(=O)[C@H](Cc1ccccc1)NC(=O)CO/N=C(\[C@@H](O)[C@@H](C)O)[C@@H](OC)[C@@H]1Cc2cc3cc(O[C@H]4C[C@@H](O[C@H]5C[C@@H](O)[C@H](O)[C@@H](C)O5)[C@H](O)[C@@H](C)O4)c(C)c(O)c3c(O)c2C(=O)[C@H]1O[C@H]1C[C@@H](O[C@H]2C[C@@H](O[C@H]3C[C@](C)(O)[C@H](O)[C@@H](C)O3)[C@@H](O)[C@@H](C)O2)[C@H](O)[C@@H](C)O1 [MTMox32E]
[1]; in vivo
  systemic clearance: low systemic clearance

## CO[C@H](C(=O)C(C)=O)[C@@H]1Cc2cc3cc(OC4C[C@@H](OC5C[C@@H](O)[C@H](O)C(C)O5)[C@H](O)C(C)O4)c(C)c(O)c3c(O)c2C(=O)[C@H]1OC1C[C@@H](OC2C[C@@H](OC3C[C@](C)(O)[C@H](O)C(C)O3)[C@@H](O)C(C)O2)[C@H](O)C(C)O1 (some centres unmarked) [MTM-SDK]
[1]; in vivo
  systemic clearance: high systemic clearance
